Laboratory results as given in article PMC12446468, “Anti-inflammatory and cytotoxic assessment of flavonoids isolated from Viola odorata flowers with computer-guided docking study” (Scientific Reports, 2025).
Converted amounts (≈) assume the structure as drawn.

Key:
[1] = molecular target: T1, COX-2 (Homo sapiens, UniProt P35354); assay: COX-2 inhibition assay (Cayman COX kit); assay type: biochemical, ovine/human
T1 construct: purchased Cayman 560131
T1 sequence (P35354 18-604): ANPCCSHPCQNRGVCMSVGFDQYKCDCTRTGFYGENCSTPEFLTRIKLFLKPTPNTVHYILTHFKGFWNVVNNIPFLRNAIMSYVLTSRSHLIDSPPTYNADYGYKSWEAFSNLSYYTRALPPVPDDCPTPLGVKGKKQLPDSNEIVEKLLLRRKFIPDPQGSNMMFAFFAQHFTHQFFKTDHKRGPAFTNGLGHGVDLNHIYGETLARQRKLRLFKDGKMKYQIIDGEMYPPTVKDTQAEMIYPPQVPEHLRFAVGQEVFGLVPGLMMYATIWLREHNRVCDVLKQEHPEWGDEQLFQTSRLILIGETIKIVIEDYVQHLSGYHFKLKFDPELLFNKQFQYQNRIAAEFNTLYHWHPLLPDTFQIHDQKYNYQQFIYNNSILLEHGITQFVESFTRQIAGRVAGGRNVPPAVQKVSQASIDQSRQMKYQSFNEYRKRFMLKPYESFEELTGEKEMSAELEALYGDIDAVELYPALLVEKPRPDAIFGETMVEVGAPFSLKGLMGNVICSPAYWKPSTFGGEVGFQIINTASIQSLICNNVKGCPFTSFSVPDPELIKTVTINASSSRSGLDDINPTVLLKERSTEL
Text: (§1) The requirements for High-Performance Liquid Chromatography (HPLC) and all compounds tested were of the utmost analytical purity. […] COX-1 and COX-2 (ovine/human), as well as the 5-LOX enzyme (human recombinant) were obtained from Sigma-Aldrich. Dulbecco’s Modified Eagle’s Medium (DMEM), along with penicillin/streptomycin and L-glutamine, were acquired from Gibco BRL, California, USA. Fetal bovine serum (FBS) and 3-(4, 5-dimethylthiazol-2-yl)-2, 5-[…] (MTT) were supplied by Sigma-Aldrich, St. Louis, Missouri, USA.
(§2) The methanolic extract of V. odorata flowers and isolated flavonoids were subjected to an in vitro anti-inflammatory assessment by inhibiting two isoenzymes, cyclooxygenase COX-1 and COX-2 (ovine/human), as well as the 5-LOX enzyme (human recombinant).

[2] = molecular target: T2, 5-LOX enzyme (human recombinant) (Homo sapiens, UniProt P09917); assay: 5-lipoxygenase inhibition assay (5-LOX kit); assay type: biochemical; details: mean ± SE, n = 3
T2 construct: purchased Sigma-Aldrich 437996
T2 sequence (P09917 1-674): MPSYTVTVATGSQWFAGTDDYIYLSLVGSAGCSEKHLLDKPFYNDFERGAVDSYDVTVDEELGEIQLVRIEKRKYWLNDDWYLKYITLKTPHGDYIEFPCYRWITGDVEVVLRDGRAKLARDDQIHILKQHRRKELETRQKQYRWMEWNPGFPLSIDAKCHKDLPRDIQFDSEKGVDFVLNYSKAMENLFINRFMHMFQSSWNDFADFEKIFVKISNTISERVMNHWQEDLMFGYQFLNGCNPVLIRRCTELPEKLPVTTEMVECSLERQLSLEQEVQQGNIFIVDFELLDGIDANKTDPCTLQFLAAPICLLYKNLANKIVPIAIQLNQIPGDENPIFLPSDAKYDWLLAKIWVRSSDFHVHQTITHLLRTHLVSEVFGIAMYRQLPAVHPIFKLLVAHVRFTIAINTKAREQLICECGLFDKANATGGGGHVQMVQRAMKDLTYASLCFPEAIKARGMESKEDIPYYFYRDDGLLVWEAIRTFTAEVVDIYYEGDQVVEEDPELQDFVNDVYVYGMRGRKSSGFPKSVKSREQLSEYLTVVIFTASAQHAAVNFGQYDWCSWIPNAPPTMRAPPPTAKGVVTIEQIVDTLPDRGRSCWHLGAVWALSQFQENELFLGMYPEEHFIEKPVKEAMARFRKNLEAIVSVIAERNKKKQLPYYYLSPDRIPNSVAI
Text: as §1, §2

[3] = MTT cytotoxicity assay, HepG2; assay type: cell-based, human; details: human, HepG2 cells (hepatocellular carcinoma), 48 h
Protocol: (§3) The assessment of cytotoxicity for the methanolic extract and isolated flavonoids was performed under controlled and sterile conditions within a Class II A2 Laminar flow biosafety cabinet. The carcinoma cell lines used in this study was obtained from Nawah Scientific Inc. (Cairo, Egypt). The cells were cultured in Dulbecco’s Modified Eagle’s Medium, enriched with 10% heat-inactivated fetal bovine serum, 100 U/ml penicillin, and 100 μg/ml streptomycin sulfate, maintained at […] in humidified incubators with 5% CO2. Upon reaching approximately 80% confluence, the cells were subcultured using a trypsin–EDTA solution. Harvesting occurred during the logarithmic growth phase. The methanolic extract and isolated flavonoids were dissolved in DMSO and stored at − 20 °C. For each experimental trial, the stock solutions were mixed with the culture medium to obtain the required final concentrations.
(§4) The effectiveness of the extract was compared to that of the reference drug, Doxorubicin. The percentage of cell viability was calculated by taking the ratio of the absorbance of the plant extract to that of the control, multiplied by 100. Furthermore, the IC50 value of the plant extract was determined using Sigma Plot software version 11 (Spw.exe) (https://sigmaplot.software.informer.com/11.0/).

[4] = system: hepatocellular carcinoma (HepG2); assay: MTT cytotoxicity assay, HepG2; assay type: cell-based, human; details: Homo sapiens, HepG2, 48 h, read-out: IC50
Protocol: as §3, §4

[5] = MTT cytotoxicity assay, HTC-116; assay type: cell-based, human; details: human, HTC-116 cells (human colorectal carcinoma), 48 h
Protocol: as §3, §4

[6] = system: human colorectal carcinoma cells (HTC-116); assay: MTT cytotoxicity assay, HTC-116; assay type: cell-based; details: Homo sapiens, HTC-116, 48 h, read-out: IC50
Protocol: as §3, §4

COc1c(O)cc2oc(-c3ccccc3)c(OC)c(=O)c2c1O [5,7-Dihydroxy-3,6-dimethoxyflavone]
IC50 ([1]; mean ± SE, n = 3): 4.72 µM | Selectivity Index (COX-1/COX-2) ([1]; ratio of IC50 COX-1 to IC50 COX-2): 0.83 | IC50 [2]: 3.14 µM | cytotoxicity at 48 h, 6.25 µg/ml ([3]; HepG2, 6.25 ug/ml): 24.9% | viability at 48 h, 6.25 µg/ml ([3]; HepG2, 6.25 ug/ml, read-out: % Cell viability): 75.1% | cytotoxicity at 48 h, 12.5 µg/ml ([3]; HepG2, 12.5 ug/ml): 35.4% | viability at 48 h, 12.5 µg/ml ([3]; HepG2, 12.5 ug/ml, read-out: % Cell viability): 64.9% | cytotoxicity at 48 h, 25 µg/ml ([3]; HepG2, 25 ug/ml): 55.9% | viability at 48 h, 25 µg/ml ([3]; HepG2, 25 ug/ml, read-out: % Cell viability): 44.1% | cytotoxicity at 48 h, 50 µg/ml ([3]; HepG2, 50 ug/ml): 69.9% | viability at 48 h, 50 µg/ml ([3]; HepG2, 50 ug/ml, read-out: % Cell viability): 30.1% | cytotoxicity at 48 h, 100 µg/ml ([3]; HepG2, 100 ug/ml): 83.5% | viability at 48 h, 100 µg/ml ([3]; HepG2, 100 ug/ml, read-out: % Cell viability): 16.5% | IC50 [4]: 32 µg/mL (≈ 102 µM) | cytotoxicity at 48 h, 6.25 µg/ml ([5]; HTC-116, 6.25 ug/ml): 29.8% | viability at 48 h, 6.25 µg/ml ([5]; HTC-116, 6.25 ug/ml, read-out: % Cell viability): 70.2% | cytotoxicity at 48 h, 12.5 µg/ml ([5]; HTC-116, 12.5 ug/ml): 39.2% | viability at 48 h, 12.5 µg/ml ([5]; HTC-116, 12.5 ug/ml, read-out: % Cell viability): 60.8% | cytotoxicity at 48 h, 25 µg/ml ([5]; HTC-116, 25 ug/ml): 49.9% | viability at 48 h, 25 µg/ml ([5]; HTC-116, 25 ug/ml, read-out: % Cell viability): 50.1% | cytotoxicity at 48 h, 50 µg/ml ([5]; HTC-116, 50 ug/ml): 64.9% | viability at 48 h, 50 µg/ml ([5]; HTC-116, 50 ug/ml, read-out: % Cell viability): 35.1% | cytotoxicity at 48 h, 100 µg/ml ([5]; HTC-116, 100 ug/ml): 85.9% | viability at 48 h, 100 µg/ml ([5]; HTC-116, 100 ug/ml, read-out: % Cell viability): 14.1% | IC50 [6]: 31.9 µg/mL (≈ 101 µM)
